# Reference: PubChem BioAssay AID2060497 (Molecular Pharmacology Branch, DTP, NCI, 2025)
# Test system: 317291-083-R-J1-PDC complex spheroids, viability
# Test: Anticancer human tumor 317291-083-R-J1-PDC patient-derived soft tissue sarcoma cell line growth inhibition [GQUAD]
# Settings: for IC50: curve of first compound; for viability, T/C: stronger effect = lower value
# In short: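 Multi-cell-type spheroids of tumor cells with HUVEC and mesenchymal stem cells, treated with drug combinations. Concentrations descend in half-log steps from near clinical Cmax, or from 10 microM where Cmax is unknown; viability read-out.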
# [1] = second compound 0.0316 µM, first compound 0.0316 µM
# [2] = second compound 0.0316 µM, first compound 0.1 µM
# [3] = second compound 0.0316 µM, first compound 0.316 µM
# [4] = second compound 0.0316 µM, first compound 1 µM
# [5] = second compound 0.0316 µM, first compound 3.16 µM
# [6] = second compound 0.0316 µM, first compound 10 µM
# [7] = second compound 0.1 µM, first compound 0.0316 µM
# [8] = second compound 0.1 µM, first compound 0.1 µM
# [9] = second compound 0.1 µM, first compound 0.316 µM
# [10] = second compound 0.1 µM, first compound 1 µM
# [11] = second compound 0.1 µM, first compound 3.16 µM
# [12] = second compound 0.1 µM, first compound 10 µM
# [13] = second compound 0.316 µM, first compound 0.0316 µM
# [14] = second compound 0.316 µM, first compound 0.1 µM
# [15] = second compound 0.316 µM, first compound 0.316 µM
# [16] = second compound 0.316 µM, first compound 1 µM
# [17] = second compound 0.316 µM, first compound 3.16 µM
# [18] = second compound 0.316 µM, first compound 10 µM
# [19] = second compound 1 µM, first compound 0.0316 µM
# [20] = second compound 1 µM, first compound 0.1 µM
# [21] = second compound 1 µM, first compound 0.316 µM
# [22] = second compound 1 µM, first compound 1 µM
# [23] = second compound 1 µM, first compound 3.16 µM
# [24] = second compound 1 µM, first compound 10 µM
# [25] = second compound 3.16 µM, first compound 0.0316 µM
# [26] = second compound 3.16 µM, first compound 0.1 µM
# [27] = second compound 3.16 µM, first compound 0.316 µM
# [28] = second compound 3.16 µM, first compound 1 µM
# [29] = second compound 3.16 µM, first compound 3.16 µM
# [30] = second compound 3.16 µM, first compound 10 µM
# [31] = second compound 10 µM, first compound 0.0316 µM
# [32] = second compound 10 µM, first compound 0.1 µM
# [33] = second compound 10 µM, first compound 0.316 µM
# [34] = second compound 10 µM, first compound 1 µM
# [35] = second compound 10 µM, first compound 3.16 µM
# [36] = second compound 10 µM, first compound 10 µM
# 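Note: spheroids exposed to compounds for one week before readout.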
# 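Throughout, for viability, T/C: percent viability relative to DMSO vehicle wells taken as 100%.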
smiles,measurement,setting,value
CC(=O)O[C@H]1C(=O)[C@@]2(C)[C@H]([C@H](OC(=O)c3ccccc3)[C@]3(O)C[C@H](OC(=O)[C@H](O)[C@@H](NC(=O)c4ccccc4)c4ccccc4)C(C)=C1C3(C)C)[C@]1(OC(C)=O)CO[C@@H]1C[C@@H]2O + CN(C)c1ccc(Nc2c3ccc(NC(=O)CCN4CCCC4)cc3nc3cc(NC(=O)CCN4CCCC4)ccc23)cc1,IC50,second compound 0.0316 µM,< 31.6 nM
same,IC50,second compound 0.1 µM,< 31.6 nM
same,IC50,second compound 0.316 µM,< 31.6 nM
same,IC50,second compound 1 µM,< 31.6 nM
same,IC50,second compound 3.16 µM,< 31.6 nM
same,IC50,second compound 10 µM,< 31.6 nM
same,"viability, T/C",[1],46.5%
same,"viability, T/C",[2],17%
same,"viability, T/C",[3],12.4%
same,"viability, T/C",[4],14.7%
same,"viability, T/C",[5],11.4%
same,"viability, T/C",[6],12.4%
same,"viability, T/C",[7],39.5%
same,"viability, T/C",[8],13.6%
same,"viability, T/C",[9],12.5%
same,"viability, T/C",[10],12.2%
same,"viability, T/C",[11],10.4%
same,"viability, T/C",[12],10.6%
same,"viability, T/C",[13],25.9%
same,"viability, T/C",[14],14%
same,"viability, T/C",[15],9.98%
same,"viability, T/C",[16],8.69%
same,"viability, T/C",[17],10.2%
same,"viability, T/C",[18],9.42%
same,"viability, T/C",[19],21.7%
same,"viability, T/C",[20],6.55%
same,"viability, T/C",[21],5.24%
same,"viability, T/C",[22],7.99%
same,"viability, T/C",[23],6.09%
same,"viability, T/C",[24],6.28%
same,"viability, T/C",[25],9.14%
same,"viability, T/C",[26],0.56%
same,"viability, T/C",[27],0.37%
same,"viability, T/C",[28],0.6%
same,"viability, T/C",[29],1.62%
same,"viability, T/C",[30],0.92%
same,"viability, T/C",[31],0.91%
same,"viability, T/C",[32],0.27%
same,"viability, T/C",[33],0.18%
same,"viability, T/C",[34],0.29%
same,"viability, T/C",[35],0.25%
same,"viability, T/C",[36],0.23%
COc1cccc2c1C(=O)c1c(O)c3c(c(O)c1C2=O)CC(O)(C(=O)CO)CC3OC1CC(N)C(O)C(C)O1 (stereo unspecified) + Cc1cnc(CNC(=O)c2c(=O)c3ccc(N4CCCN(C)CC4)nc3n3c2sc2ccccc23)cn1,IC50,second compound 0.0316 µM,72.5 nM
same,IC50,second compound 0.1 µM,47.1 nM
same,IC50,second compound 0.316 µM,< 31.6 nM
same,IC50,second compound 1 µM,< 31.6 nM
same,IC50,second compound 3.16 µM,< 31.6 nM
same,IC50,second compound 10 µM,< 31.6 nM
same,"viability, T/C",[1],84%
same,"viability, T/C",[2],34%
same,"viability, T/C",[3],21.1%
same,"viability, T/C",[4],10.7%
same,"viability, T/C",[5],1.84%
same,"viability, T/C",[6],4.21%
same,"viability, T/C",[7],62.7%
same,"viability, T/C",[8],24%
same,"viability, T/C",[9],18.2%
same,"viability, T/C",[10],8.39%
same,"viability, T/C",[11],3.34%
same,"viability, T/C",[12],2.66%
same,"viability, T/C",[13],45.8%
same,"viability, T/C",[14],35%
same,"viability, T/C",[15],22.1%
same,"viability, T/C",[16],6.47%
same,"viability, T/C",[17],2.05%
same,"viability, T/C",[18],2.05%
same,"viability, T/C",[19],38.1%
same,"viability, T/C",[20],18.4%
same,"viability, T/C",[21],15.9%
same,"viability, T/C",[22],12.2%
same,"viability, T/C",[23],1.05%
same,"viability, T/C",[24],1.27%
same,"viability, T/C",[25],18.5%
same,"viability, T/C",[26],15.8%
same,"viability, T/C",[27],11.6%
same,"viability, T/C",[28],0.53%
same,"viability, T/C",[29],0.36%
same,"viability, T/C",[30],1.14%
same,"viability, T/C",[31],16.5%
same,"viability, T/C",[32],15.6%
same,"viability, T/C",[33],20.6%
same,"viability, T/C",[34],20.7%
same,"viability, T/C",[35],0.34%
same,"viability, T/C",[36],0.34%
O=C(c1cc(Cc2n[nH]c(=O)c3ccccc23)ccc1F)N1CCN(C(=O)C2CC2)CC1 + Cc1cnc(CNC(=O)c2c(=O)c3ccc(N4CCCN(C)CC4)nc3n3c2sc2ccccc23)cn1,IC50,second compound 0.0316 µM,> 10000 nM
same,IC50,second compound 0.1 µM,2170 nM
same,IC50,second compound 0.316 µM,< 31.6 nM
same,IC50,second compound 1 µM,< 31.6 nM
same,IC50,second compound 3.16 µM,< 31.6 nM
same,IC50,second compound 10 µM,< 31.6 nM
same,"viability, T/C",[1],101%
same,"viability, T/C",[2],92.4%
same,"viability, T/C",[3],89.7%
same,"viability, T/C",[4],77.5%
same,"viability, T/C",[5],67.7%
same,"viability, T/C",[6],59.3%
same,"viability, T/C",[7],88.3%
same,"viability, T/C",[8],72.7%
same,"viability, T/C",[9],64.5%
same,"viability, T/C",[10],57.6%
same,"viability, T/C",[11],53.3%
same,"viability, T/C",[12],31.2%
same,"viability, T/C",[13],44.7%
same,"viability, T/C",[14],43.4%
same,"viability, T/C",[15],57.1%
same,"viability, T/C",[16],33.8%
same,"viability, T/C",[17],39.2%
same,"viability, T/C",[18],46%
same,"viability, T/C",[19],30%
same,"viability, T/C",[20],38.5%
same,"viability, T/C",[21],51.5%
same,"viability, T/C",[22],26.6%
same,"viability, T/C",[23],24.2%
same,"viability, T/C",[24],19.6%
same,"viability, T/C",[25],17.2%
same,"viability, T/C",[26],14.6%
same,"viability, T/C",[27],64.8%
same,"viability, T/C",[28],39.8%
same,"viability, T/C",[29],32.8%
same,"viability, T/C",[30],14.8%
same,"viability, T/C",[31],31.1%
same,"viability, T/C",[32],16.8%
same,"viability, T/C",[33],19.1%
same,"viability, T/C",[34],36.2%
same,"viability, T/C",[35],20.5%
same,"viability, T/C",[36],15.2%
